Reference: article PMC11714206, “Massively Parallel Screening of Toll/Interleukin‐1 Receptor (TIR)‐Derived Peptides Reveals Multiple Toll‐Like Receptors (TLRs)‐Targeting Immunomodulatory Peptides” (Advanced Science, 2024)
Blank lines part the entries; values can stand above or below the sequence they belong to.

Target: T1, MyD88^TIR (Homo sapiens, UniProt Q99836)
T1 construct: MyD88 (residues 148–296); 6xHis; made in house; host or cells: E. coli BL21 (DE3)
Assay: T‐Surf phage library (P8 and P3) selection against MyD88^TIR, four rounds, NGS read counts
Format: binding
Conditions: for P3_MyD88 Rank (after) / P3_MyD88 Rank (before): P3 library; for P8_MyD88 Rank (after) / P8_MyD88 Rank (before): P8 library; for Population: 4th round of selection against MyD88 TIR, share of NGS reads
Procedure, shortened: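 Coat TIR domain 5 µg mL^−1 overnight; block 0.2% BSA/PBS 1 h, 4 °C; add phage library 1 h, RT; wash ×4 PBS/0.5% Tween‐20; elute 100 mM HCl, neutralize Tris; amplify in TG1, PEG‐precipitate. Repeat to round 4; barcode PCR, NovaSeq, count reads.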

[1] = selection against MyD88 TIR, rank by count after grouping
[2] = selection against MyD88 TIR, rank by count before grouping
[3] = P8_MyD88: rank by count after grouping
[4] = P8_MyD88: rank by count before grouping
[5] = P8_MyD88: rank by NGS read count after grouping
[6] = P8_MyD88: rank by NGS read count before grouping
[7] = selection against MyD88, rank by count after grouping
[8] = selection against MyD88, rank by count before grouping
[9] = selection against MyD88, rank after grouping
[10] = selection against MyD88, rank before grouping
[11] = P8_MyD88 pool: P8 T-Surf phage library
[12] = 4R selection against MyD88, rank after grouping
[13] = 4R selection against MyD88, rank before grouping
[14] = P3_MyD88: rank by count after grouping
[15] = P3_MyD88: rank by count before grouping

T1 sequence (Q99836 148-296): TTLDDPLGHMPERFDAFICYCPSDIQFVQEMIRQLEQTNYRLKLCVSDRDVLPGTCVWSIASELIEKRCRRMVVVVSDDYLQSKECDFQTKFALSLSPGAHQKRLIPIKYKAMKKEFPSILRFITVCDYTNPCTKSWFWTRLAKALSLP

Sequence: KEVEGWRDALPTVASL
- P3_MyD88 Rank (after) [1]: 220
- P3_MyD88 Rank (before) [2]: 3622

Sequence: LGYHRIDWEYCVGIED
- Rank (after) [5]: 1020
- Rank (before) [6]: 3318

Sequence: DPQDLDWCYERLVSRC
- Rank (after) [3]: 461
- Rank (before) [4]: 2817

Sequence: YAASPWWLVELVQIVG
- P8_MyD88 Rank (after) [7]: 752
- P8_MyD88 Rank (before) [8]: 1758

Sequence: DYASSSWYLDELVHILW
- P8_MyD88 Rank (after) [1]: 262
- P8_MyD88 Rank (before) [2]: 693

Sequence: PSEVRNRPAAWRKRL
- P3_MyD88 Rank (after) [1]: 195
- P3_MyD88 Rank (before) [2]: 1127

Sequence: KNLSNELVSKNILTFM
- P3_MyD88 Rank (after) [1]: 260
- P3_MyD88 Rank (before) [2]: 3787

Sequence: VQWDELLQILHARELF
- Rank (after) [5]: 965
- Rank (before) [6]: 2249

Sequence: EWIREQLHPALNERLP
- P3_MyD88 Rank (after) [7]: 742
- P3_MyD88 Rank (before) [8]: 2176

Sequence: LGYHWNDGEYFVGIKD
- P8_MyD88 Rank (after) [9]: 489
- P8_MyD88 Rank (before) [10]: 3306

Sequence: YELAFSHCCLFEGHST
- Rank (after) [5]: 1007
- Rank (before) [6]: 1925

Sequence: DPPELDWFYERLFSLF
- Rank (after) [5]: 971
- Rank (before) [6]: 2627

Sequence: YASSSWALEELVKIMEAM
- Rank (after) [3]: 454
- Rank (before) [4]: 1898

Sequence: DPQDQEWFYERLFSHV
- Rank (after) [3]: 438
- Rank (before) [4]: 2970

Sequence: DPQDQDWVYERLVSLF
- Rank (after) [5]: 936
- Rank (before) [6]: 2966

Sequence: YASYDDNDYYWVTHVLLRHM
- Population [11]: 0.00732%

Sequence: LGYPWIDWEYYVGIED
- P8_MyD88 Rank (after) [9]: 519
- P8_MyD88 Rank (before) [10]: 3226

Sequence: WALNELLEILKAREDI
- Rank (after) [3]: 115
- Rank (before) [4]: 123
- Population [11]: 0.0173%

Sequence: DPQDHYLLYERLVSLF
- Rank (after) [5]: 934
- Rank (before) [6]: 2964

Sequence: RELGVVDDGSVSALEM
- Rank (after) [14]: 410
- Rank (before) [15]: 2692

Sequence: DRQDLVWPYERLVSLL
- P8_MyD88 Rank (after) [7]: 698
- P8_MyD88 Rank (before) [8]: 2599

Sequence: WEDVRINFLSHFLKEL
- P8_MyD88 Rank (after) [1]: 253
- P8_MyD88 Rank (before) [2]: 434

Sequence: DHHLDLPRGKALTPEILG
- P3_MyD88 Rank (after) [12]: 657
- P3_MyD88 Rank (before) [13]: 2012

Sequence: SSFREGPWRLLALSKK
- P3_MyD88 Rank (after) [9]: 509
- P3_MyD88 Rank (before) [10]: 3216

Sequence: RVAHEISTKMKIFATI
- P3_MyD88 Rank (after) [9]: 559
- P3_MyD88 Rank (before) [10]: 2682

Sequence: SSFREGLWRLLELSKR
- Population (P3_MyD88 pool: P3 T-Surf phage library): 0.00291%

Sequence: DPQDLQWFYECLVSLL
- P8_MyD88 Rank (after) [9]: 514
- P8_MyD88 Rank (before) [10]: 2911

Sequence: YASSSWYLDALVQILHARELF
- Rank (after) [3]: 388
- Rank (before) [4]: 1856

Sequence: WALDELLQILYARERF
- Rank (after) [3]: 448
- Rank (before) [4]: 1466

Sequence: LGYHWIDWEYFVGIK
- Rank (after) [5]: 874
- Rank (before) [6]: 3264

Sequence: YTALTNRAFIPFVIM
- P3_MyD88 Rank (after) [12]: 590
- P3_MyD88 Rank (before) [13]: 1658

Sequence: WVFASNLETFWARLYY
- P8_MyD88 Rank (after) [12]: 599
- P8_MyD88 Rank (before) [13]: 1388

Sequence: IDDDHLTYLVRLLYSLHVT
- P8_MyD88 Rank (after) [12]: 669
- P8_MyD88 Rank (before) [13]: 3630

Sequence: WDFASNMAQFWDRRYY
- P8_MyD88 Rank (after) [1]: 283
- P8_MyD88 Rank (before) [2]: 1593

Other lines, results leading:

- Rank (after) [3]: 412
- Rank (before) [4]: 1290
Sequence: SSSFALHELATILEAL

- Rank (after) [5]: 976
- Rank (before) [6]: 1390
Sequence: WVLHKVLQILHAREIY

- P3_MyD88 Rank (after) [1]: 262
- P3_MyD88 Rank (before) [2]: 3420
Sequence: NELVHVWSSKANSLW

- Rank (after) [3]: 430
- Rank (before) [4]: 897
Sequence: WRTALTKVGNMLGWIS

- Rank (after) [3]: 174
- Rank (before) [4]: 197
Sequence: EGFTGFLYEALTRYGI

- P3_MyD88 Rank (after) [9]: 513
- P3_MyD88 Rank (before) [10]: 2316
Sequence: LVAHRMSKKMKNVATI

- Rank (after) [3]: 391
- Rank (before) [4]: 3656
Sequence: MFGGDSFHDFLELISM

- Rank (after) [3]: 418
- Rank (before) [4]: 1762
Sequence: YAASPWWFDELVKTVR

- Rank (after) [3]: 160
- Rank (before) [4]: 177
- Population [11]: 0.00771%
Sequence: VASHWALEELRMIMDF

- P3_MyD88 Rank (after) [12]: 671
- P3_MyD88 Rank (before) [13]: 1858
Sequence: GSFREILLRLLDLSKK

- Rank (after) [3]: 131
- Rank (before) [4]: 142
- Population [11]: 0.0116%
Sequence: EIARQLLSEYLNIAVY

- P8_MyD88 Rank (after) [7]: 737
- P8_MyD88 Rank (before) [8]: 3124
Sequence: DSLIWDRLLYSIKVTE

- Rank (after) [3]: 161
- Rank (before) [4]: 179
- Population [11]: 0.00771%
Sequence: SSRWALDELVHIMQAL

- Rank (after) [3]: 466
- Rank (before) [4]: 3127
Sequence: DSVFWDLLRYSLHVTE

- P8_MyD88 Rank (after) [1]: 207
- P8_MyD88 Rank (before) [2]: 300
Sequence: YVDSPWALDELVKILQ

- Rank (after) [14]: 102
- Rank (before) [15]: 355
Sequence: DHHLDLPRGKAINRKFW

- P8_MyD88 Rank (after) [9]: 548
- P8_MyD88 Rank (before) [10]: 3225
Sequence: LGYRLMFWDYFVGIVD

- P3_MyD88 Rank (after) [7]: 738
- P3_MyD88 Rank (before) [8]: 2882
Sequence: QQVVRYRLEIVRVTKL

- P3_MyD88 Rank (after) [1]: 201
- P3_MyD88 Rank (before) [2]: 3055
Sequence: SELRVEDDGSVIPLEM

- Rank (after) [3]: 129
- Rank (before) [4]: 140
- Population [11]: 0.0116%
Sequence: AYILNFIKGNVMFEFL

- Rank (after) [14]: 150
- Rank (before) [15]: 3231
Sequence: SSFRKGLWRLLELLKK

- Rank (after) [5]: 908
- Rank (before) [6]: 2280
Sequence: GALDEVRKILYANETM

- P3_MyD88 Rank (after) [12]: 617
- P3_MyD88 Rank (before) [13]: 3650
Sequence: KEVEGWRNALTNVASL

- Rank (after) [3]: 477
- Rank (before) [4]: 1960
Sequence: YLEWPLDENQQLIFWF

- Rank (after) [14]: 478
- Rank (before) [15]: 3124
Sequence: SSFLQKLRRRLELSIV

- P8_MyD88 Rank (after) [9]: 527
- P8_MyD88 Rank (before) [10]: 3897
Sequence: KIARCMIFGVFWKAP

- P8_MyD88 Rank (after) [1]: 196
- P8_MyD88 Rank (before) [2]: 269
Sequence: QSAWALNQLLQIIDWH

- Population [11]: 0.0112%
Sequence: DPQDLEWFYERLVSLF

- P8_MyD88 Rank (after) [12]: 586
- P8_MyD88 Rank (before) [13]: 1640
Sequence: WDYASNVELFWGRMNY

- P3_MyD88 Rank (after) [1]: 225
- P3_MyD88 Rank (before) [2]: 1708
Sequence: YTARTNSGFHTFLDND

- P3_MyD88 Rank (after) [7]: 691
- P3_MyD88 Rank (before) [8]: 3451
Sequence: NELVNVWSSKANSQVG

- P8_MyD88 Rank (after) [7]: 743
- P8_MyD88 Rank (before) [8]: 2995
Sequence: DPQEQLSFCERLITVF

- P8_MyD88 Rank (after) [1]: 243
- P8_MyD88 Rank (before) [2]: 435
Sequence: WRDVLKYIANLSGWDS

- P3_MyD88 Rank (after) [9]: 520
- P3_MyD88 Rank (before) [10]: 2142
Sequence: EWIREQLRPALKNVC

- Rank (after) [3]: 106
- Rank (before) [4]: 568
Sequence: DPQDLDWFYERQVSLL

- P8_MyD88 Rank (after) [1]: 275
- P8_MyD88 Rank (before) [2]: 586
Sequence: EWFYERLFSQMRKDIK

- Rank (after) [3]: 170
- Rank (before) [4]: 200
Sequence: LTEEIVNHILKRLAEL

- P8_MyD88 Rank (after) [9]: 577
- P8_MyD88 Rank (before) [10]: 1451
Sequence: WALDELLQILHAREL

- Rank (after) [3]: 171
- Rank (before) [4]: 192
- Population [11]: 0.00617%
Sequence: YYDSRWALDELLKILYANETM

- Rank (after) [5]: 931
- Rank (before) [6]: 1850
Sequence: YASSWWALEELLQILHARELF

- Rank (after) [5]: 994
- Rank (before) [6]: 1899
Sequence: YASSSWALLELSKIFEAM

- P8_MyD88 Rank (after) [7]: 705
- P8_MyD88 Rank (before) [8]: 3508
Sequence: PNLRTKVLNYLMRTKT
